Key:
[1] = 101 kPa, Liquid; for mass density: Pycnometric method
[2] = wn = mass fraction of the nth substance listed; settings: 101 kPa, Liquid; for mass density: Pycnometric method

CCCCn1cc[n+](C)c1.F[B-](F)(F)F [1-butyl-3-methylimidazolium tetrafluoroborate]
[1]
Settings	mass density [kg/m3]	viscosity [mPa·s]
298.15 K	1200.6	93.81
303.15 K	1197.7	71.76
308.15 K	1194.8	56.41
313.1 K	1191.5	45.6
318.15 K	1188.4	37.32

CCCCn1cc[n+](C)c1.F[B-](F)(F)F [1-butyl-3-methylimidazolium tetrafluoroborate] + CN1CCCC1=O
[2], w1 = 1
Settings	mass density [kg/m3]	viscosity [mPa·s]
298.15 K	1200.6	93.81
303.15 K	1197.7	71.76
308.15 K	1194.8	56.41
313.1 K	1191.5	45.6
318.15 K	1188.4	37.32

CN1CCCC1=O [N-methylpyrrolidone]
[1]
Settings	mass density [kg/m3]	viscosity [mPa·s]
298.15 K	1028.3	1.683
303.15 K	1024.5	1.558
308.15 K	1020.1	1.47
313.1 K	1015.8	1.337
318.15 K	1011.7	1.248

CN1CCCC1=O [N-methylpyrrolidone] + CCCCn1cc[n+](C)c1.F[B-](F)(F)F
[2]
Settings	mass density, 298.15 K [kg/m3]	mass density, 303.15 K [kg/m3]	mass density, 308.15 K [kg/m3]	mass density, 313.1 K [kg/m3]	mass density, 318.15 K [kg/m3]	viscosity, 298.15 K [mPa·s]	viscosity, 303.15 K [mPa·s]	viscosity, 308.15 K [mPa·s]	viscosity, 313.1 K [mPa·s]	viscosity, 318.15 K [mPa·s]
w2 = 0	1028.3	1024.5	1020.1	1015.8	1011.7	1.683	1.558	1.47	1.337	1.248
w2 = 0.5	1115.6	1111.8	1107.9	1104.1	1100.3	8.196	7.291	6.382	5.63	5.045
w2 = 0.6999	1148.8	1145.6	1142	1138.3	1135	19.33	16.03	13.51	11.63	10.07
w2 = 0.8981	1182	1179.4	1176.2	1173.1	1170.1	49.46	39.75	32.43	26.93	22.47

Source: the NIST ThermoML archive (doi:10.1021/je200886j)
